# Experimental data published in the supplement of paper PMC6045584.
# ± gives the standard deviation of the averaged measurements.
# Legend:
# [1] = compound: C[C@@H]1CN(CC(=O)Nc2ccc3c(c2)Cc2cccc(-c4cc(=O)cc(N5CCOCC5)o4)c2S3)C[C@H](C)O1; assay: surviving fraction relative to DMSO-only wells; higher = less growth inhibition; details: exposure time: 5 days
# In short: (§1)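 In 384-well plates, 250–500 log-phase tumour cells per well were given 24 hours before five days of continuous exposure to inhibitors at 0.5, 1, 5, 10, 50, 100, 500 and 1000 nM. Surviving fraction is luminescence from CellTiter-Glo, normalised to the median of wells containing DMSO alone. Reading took place after 10 minutes at room temperature.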
# BLEOMYCIN = compound: Cc1c(N)nc([C@H](CC(N)=O)NC[C@H](N)C(N)=O)nc1C(=O)N[C@H](C(=O)N[C@H](C)[C@@H](O)[C@H](C)C(=O)N[C@H](C(=O)NCCc1nc(-c2nc(C(=O)NCCC[S+](C)C)cs2)cs1)[C@@H](C)O)[C@@H](OC1OC(CO)C(O)C(O)C1OC1OC(CO)C(O)C(OC(N)=O)C1O)c1cnc[nH]1 [BLEOMYCIN]; assay: as above; details: exposure time: 5 days
# In short: as §1
Test System,surviving fraction ([1]; 0.5 nM),surviving fraction ([1]; 1 nM),surviving fraction ([1]; 5 nM),surviving fraction ([1]; 10 nM),surviving fraction ([1]; 50 nM),surviving fraction ([1]; 100 nM),surviving fraction ([1]; 500 nM),surviving fraction ([1]; 1000 nM),surviving fraction (BLEOMYCIN; 0.5 nM),surviving fraction (BLEOMYCIN; 1 nM),surviving fraction (BLEOMYCIN; 5 nM),surviving fraction (BLEOMYCIN; 10 nM),surviving fraction (BLEOMYCIN; 50 nM),surviving fraction (BLEOMYCIN; 100 nM),surviving fraction (BLEOMYCIN; 500 nM),surviving fraction (BLEOMYCIN; 1000 nM)
SG27 HEADNECK,1.02 ± 0.1,0.976 ± 0.047,1.13 ± 0.079,1.02 ± 0.15,0.95 ± 0.056,0.988 ± 0.11,1.01 ± 0.061,1.03 ± 0.1,1.12 ± 0.06,0.997 ± 0.085,0.934 ± 0.081,1.02 ± 0.011,0.949 ± 0.11,1.01 ± 0.17,1.01 ± 0.11,0.864 ± 0.14
SG28 HEADNECK,1.07 ± 0.081,1.11 ± 0.13,1.04 ± 0.093,0.986 ± 0.033,0.9 ± 0.054,0.915 ± 0.047,0.9 ± 0.1,0.87 ± 0.11,0.864 ± 0.081,0.917 ± 0.11,0.892 ± 0.056,0.907 ± 0.13,0.944 ± 0.074,0.899 ± 0.053,0.909 ± 0.028,0.868 ± 0.1
SG31 HEADNECK,0.946 ± 0.076,0.916 ± 0.1,1.06 ± 0.17,0.953 ± 0.07,0.971 ± 0.12,0.964 ± 0.09,1.08 ± 0.087,1.06 ± 0.098,0.979 ± 0.12,0.924 ± 0.018,0.767 ± 0.12,0.805 ± 0.12,0.83 ± 0.046,0.733 ± 0.066,0.712 ± 0.13,0.595 ± 0.065
SG32 HEADNECK,1.16 ± 0.16,1.07 ± 0.2,1.12 ± 0.18,1.62 ± 0.39,0.939 ± 0.091,1.05 ± 0.047,0.74 ± 0.11,0.681 ± 0.082,0.921 ± 0.32,0.967 ± 0.23,0.818 ± 0.069,0.825 ± 0.17,0.824 ± 0.071,0.698 ± 0.048,0.593 ± 0.094,0.427 ± 0.05
SG43 HEADNECK,0.871 ± 0.21,1.22 ± 0.069,1.03 ± 0.14,1.16 ± 0.14,1.37 ± 0.25,1.38 ± 0.36,1.31 ± 0.19,1.43 ± 0.061,1.13 ± 0.058,1.08 ± 0.13,1.02 ± 0.096,0.81 ± 0.18,0.583 ± 0.015,0.78 ± 0.087,0.613 ± 0.17,0.391 ± 0.13
SIHA CERVIX,1.04 ± 0.022,1.1 ± 0.082,1.09 ± 0.0035,1.06 ± 0.023,1.04 ± 0.062,1.08 ± 0.084,1.02 ± 0.11,0.931 ± 0.051,0.959 ± 0.083,0.957 ± 0.017,1.02 ± 0.042,1.02 ± 0.046,1.08 ± 0.071,1.08 ± 0.059,0.961 ± 0.053,0.967 ± 0.024
SJSA1 BONE,0.993 ± 0.05,1.04 ± 0.03,1.05 ± 0.029,1.06 ± 0.061,1 ± 0.017,1.05 ± 0.026,0.9383 ± 0.0074,0.892 ± 0.034,0.855 ± 0.056,0.861 ± 0.079,0.839 ± 0.026,0.773 ± 0.011,0.654 ± 0.029,0.504 ± 0.025,0.481 ± 0.029,0.44 ± 0.024
SKBR3 BREAST,1.06 ± 0.013,0.979 ± 0.19,0.937 ± 0.22,0.939 ± 0.088,0.9 ± 0.16,1.05 ± 0.13,0.886 ± 0.07,0.61 ± 0.033,0.886 ± 0.19,0.721 ± 0.1,0.81 ± 0.16,0.768 ± 0.15,0.872 ± 0.15,0.889 ± 0.099,0.87 ± 0.11,0.783 ± 0.13
SNU475 LIVER,0.97 ± 0.022,1.02 ± 0.034,1.007 ± 0.0086,1.02 ± 0.027,0.876 ± 0.026,0.96133 ± 0.00058,0.863 ± 0.04,0.669 ± 0.036,0.8647 ± 0.0059,0.859 ± 0.0092,0.838 ± 0.014,0.844 ± 0.024,0.8043 ± 0.0023,0.752 ± 0.043,0.53 ± 0.025,0.384 ± 0.0084
SUM44 BREAST,0.936 ± 0.036,0.936 ± 0.034,0.977 ± 0.028,0.968 ± 0.023,0.911 ± 0.044,0.915 ± 0.067,0.898 ± 0.083,0.892 ± 0.031,0.917 ± 0.045,0.918 ± 0.013,0.92 ± 0.058,0.93 ± 0.025,1.06 ± 0.037,0.973 ± 0.088,0.853 ± 0.059,0.824 ± 0.023
